The target of one data set is STrEP-tagged TM4SF5WT (UniProt O14894). Briefly: streptavidin pull-down and immunoblot. The settings on record: SNU449 cells with STrEP-TM4SF5; 50 kDa band, IP: STrEP lanes. For orientation: Immunoblotting shows a protein as a band on a membrane.
The nature of data set [1]: Stability of peptides in mouse serum. Format: in vitro ADME. The settings on record: C57BL/6 mouse serum, 10 ppm/reaction, 24 h vs 0 h (without mixing with serum), formic acid precipitation, LC (ZORBAX Eclipse C18) with ELSD; one range printed for both peptides; Figure S6A. As for the experimental part:
collected after centrifugation at 13,000 × g for 10 min and stored at -20 ℃. To analyze, we used the ZORBAX Eclipse C18 Column (2.6 × 250 mm, 5 μm) in the Agilent 1200 Infinity LC and kept the column temperature at 40 ℃. Injection volume from samples was 20 μL and for the mobile phase, MS grade water with 0.1% formic acid (‘a’) and MS grade acetonitrile (‘b’) were flowed at the velocity of 1 mL/min. The gradient per sample was ‘a’ (5%)/’b’(95%) for 0 and 5 min, ‘a’ (90%)/’b’(10%) for 10 min, and ‘a’ (40%)/’b’(60%) for 15 min. Agilent 1260 infinity ELSD was used with an LC stack for detection. […]

The next data set deals with SNU761-TM4SF5 cells. Briefly: Transwell chemotactic migration of SNU761-TM4SF5 cells with PP2. It counts as cell-based, human. The settings on record: PP2 10 μM, transwell migration 4 h, 10% FBS; Figure 3F and S2B. The protocol:
SNU761 cells stably expressing TM4SF5WT were transiently transfected with control siRNA against a scrambled sequence (siControl) or PTP1B (siPTP1B) for 48 h before undergoing the Transwell migration assay for 4 h. Cells were treated with the CPPs before being loaded into the upper chambers. The cells were then analyzed for migration or invasion using Transwell chambers with 8-μm pores (Corning Inc., Corning, NY, USA), where the bottom chamber was filled with 1% BSA alone (in serum-free media) or normal culture media containing 10% FBS as explained previously. After incubation, the number of migrated cells from randomly saved images (n = 10) per condition was counted. The data are graphed as the mean ± standard deviation (SD) for each experimental condition.
Figure S2. TM4SF5-mediated invasion and migration involves PTP1B-regulated c-Src activity. (A) SNU761 cells stably expressing mock or TM4SF5WT were transiently transfected without (No T/F) or with c-Src WT, c-Src SH432, or c-Src SH1 expression constructs for 48 h prior to invasive ECM degradation analysis for 4 h. (B) SNU761 cells stably expressing TM4SF5WT were transiently transfected with control siRNA against a scrambled sequence (siControl) or a sequence in PTP1B (siPTP1B) for 48 h, prior to transwell migration assay for 4 h. […]

For data set [2], the system named is SNU449Tp cells expressing FAK-KD. Briefly: Transwell migration of FAK-KD-expressing SNU449Tp cells with PP2 or PP3. It counts as cell-based, human. The settings on record: SNU449Tp cells infected with FAK-KD adenovirus, 10 μM, transwell migration 12 h, 10% FBS in lower chamber; Figure S1C.
The test system of data set [3] is SNU449T7 cells stably expressing TM4SF5. Briefly: Mouse tumor xenograft of TM4SF5-expressing SNU449 cells. It counts as in vivo, BALB/c-nu/nu mice. The protocol:
Mouse tumor xenograft: Four-week-old female or male BALB/c-nu/nu mice were purchased from Orient Co. Ltd (Seungnam, Korea). All animal procedures were performed in accordance with the Seoul National University Laboratory Animal Maintenance Manual and with Institutional Review Board approval (SNU-130311-6-2, SNU-140423-11-7). Mice were housed in a specific pathogen-free room under controlled temperature and humidity. Viable SNU449T7 cells (5 × 10^6) stably expressing TM4SF5 or PLC/PRF/5 cells (10^7) endogenously expressing TM4SF5 were resuspended in sterile PBS and injected subcutaneously into 5-week-old mice (n = 5 or 6, respectively). […] Body weight and tumor volume, which was determined as described previously, were measured daily.
Figure 7 TM4SF5 C-terminal peptides suppress TM4SF5-mediated tumorigenesis and metastasis. […] (E) Degradation of Oregon Green® 488-conjugated gelatin were analyzed for SNU761 cells stably expressing mock (mock) or TM4SF5WT with the 10 μM CPPs treatment for 24 h (mean ± SD values). (F) TM4SF5-null SNU449Cp (Cp) and stably TM4SF5-expressing SNU449Tp (Tp) cells were treated with the 10 μM CPPs for 24 h and then analyzed for transwell migration for 4 h (mean ± SD values in the graph). […] Surface nodules were counted and the mean ± SD values are presented (graph). […]

Where a SMILES comes first, the peptide text is derived from it.

This note sets out measurements from article PMC8315060, “N-terminus-independent activation of c-Src via binding to a tetraspan(in) TM4SF5 in hepatocellular carcinoma is abolished by the TM4SF5 C-terminal peptide application” (Theranostics, 2021).

STrEP-tagged TM4SF5WT, sequence (O14894 whole entry): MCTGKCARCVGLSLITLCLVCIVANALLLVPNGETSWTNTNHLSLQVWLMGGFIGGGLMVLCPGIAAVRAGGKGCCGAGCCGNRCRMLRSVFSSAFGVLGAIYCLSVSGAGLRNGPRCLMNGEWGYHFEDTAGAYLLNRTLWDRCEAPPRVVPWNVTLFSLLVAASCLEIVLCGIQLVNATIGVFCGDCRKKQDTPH

On to c-Src-SH321 Y419F; Y530F, for which, in the data set with STrEP-tagged TM4SF5WT, the response (relative band intensity (ImageJ ratio)) is 0.

Regarding c-Src-SH321 Y530F, in the data set with STrEP-tagged TM4SF5WT, the response (relative band intensity (ImageJ ratio)) is 0. Turning to `CC[C@H](C)[C@H](NC(=O)[C@@H](NC(=O)[C@H](CS)NC(=O)[C@@H]1CCCN1C(=O)[C@H](CCCNC(=N)N)NC(=O)[C@H](CCCNC(=N)N)NC(=O)[C@H](CCCNC(=N)N)NC(=O)[C@H](CCC(N)=O)NC(=O)[C@H](CCCNC(=N)N)NC(=O)[C@H](CCCNC(=N)N)NC(=O)[C@H](CCCCN)NC(=O)[C@H](CCCCN)NC(=O)[C@@H](N)CCCNC(=N)N)C(C)C)C(=O)N[C@@H](CCSC)C(=O)NCC(=O)N[C@@H](CC(=O)O)C(=O)N[C@@H](CS)C(=O)N[C@@H](CCCNC(=N)N)C(=O)N[C@@H](CCCCN)C(=O)N[C@@H](CCCCN)C(=O)N[C@@H](CCC(N)=O)C(=O)N[C@@H](CC(=O)O)C(=O)N[C@H](C(=O)N1CCC[C@H]1C(=O)N[C@@H](Cc1c[nH]cn1)C(=O)O)[C@@H](C)O` [TcxC] (H-RKKRRQRRRPCVIMGDCRKKQDTPH-OH), the “peptide remaining after incubation in mouse serum” value in data set [1] is 44-65%. Still for that read-out and setting: the figure for `C[C@@H](O)[C@H](NC(=O)[C@@H]1CCCN1C(=O)[C@H](CCCNC(=N)N)NC(=O)[C@H](CCCNC(=N)N)NC(=O)[C@H](CCCNC(=N)N)NC(=O)[C@H](CCC(N)=O)NC(=O)[C@H](CCCNC(=N)N)NC(=O)[C@H](CCCNC(=N)N)NC(=O)[C@H](CCCCN)NC(=O)[C@H](CCCCN)NC(=O)[C@@H](N)CCCNC(=N)N)C(=O)N[C@@H](CS)C(=O)N[C@@H](CCCCN)C(=O)N1CCC[C@H]1C(=O)N[C@@H](CC(=O)O)C(=O)N[C@@H](CCCCN)C(=O)NCC(=O)N[C@@H](CCC(N)=O)C(=O)N[C@@H](CCCNC(=N)N)C(=O)N[C@@H](Cc1c[nH]cn1)C(=O)N[C@@H](CC(=O)O)C(=O)O` [TCsr] (H-RKKRRQRRRPTCKPDKGQRHD-OH) is 44-65%. Consider c-Src-SH321 Y419F, for which the response (relative band intensity (ImageJ ratio)) in the data set with STrEP-tagged TM4SF5WT turned out to be 1. For `CC(C)(C)n1nc(-c2ccc(Cl)cc2)c2c(N)ncnc21` [PP2], in the data set on SNU761-TM4SF5 cells, the “chemotactic migration of SNU761-TM4SF5 cells” value was “abolished”. In data set [2], the “residual migration of FAK-KD cells” value is “abolished”. The “TM4SF5-dependent tumor formation in xenograft” value in data set [3] (3 mg/kg subcutaneous injection every day for 10 days, n = 4, Figure S5A) is given as “suppressed TM4SF5-dependent tumor formation”. In addition, in data set [3] (n = 6, 15 days, PP2 3 mg/kg, TCsr 0.111 nmol/g, TcxC 0.095 nmol/g, Figure S5B), the “effect on xenograft tumor growth, 15-day treatment” value was “suppressive effect”.
